In brackets after ≈: the same amount, converted by molar mass. Where two headings read alike, the source gives them in different places.
Legend:
CHOB1 = assay: LAMELLARINS TOXICITY TO SENSITIVE TUMOR CELL LINE CHOB1 (MTT); assay type: cell-based, chinese hamster; settings: Cricetulus griseus, 72 h, read-out: ACTIVITY: IC50
Method: (§1) Sensitive and MDR cells were maintained, in logarithmic phase of growth, in Eagle's Minimum Essential Medium, with Earle's Balanced Salts, with non-essential amino acids, with 2.0 mM L-glutamine, without sodium bicarbonate (EMEM/neaa), supplemented with 5% Fetal Calf Serum (FCS), 10^-2 M sodium bicarbonate and 0.1 g/l penicillin G+0.1 g/l streptomycin sulfate.
(§2) In Vitro cell cytotoxicity was determined using the 3-[4,5-dimethylthiazol-2-yl]-2,5-dipheniltetrazolium bromide (MTT), from Sigma Ref:M-2128, for quantitative measurement of cell growth and viability. See, T. Mosmann, "Rapid Colorimetric Assay for Cellular Growth and Survival: Application to Proliferation and Cytotoxicity Assays," Journal of Immunological Methods, 65: 55-63 (1983).
(§3) The tumor cell lines employed have been: P-388 (ATCC CCL 46), suspension culture of a lymphoid neoplasm from a DBA/2 mouse and its corresponding MDR cell line P-388/SCHABEL; CHOB1 (ATCC CCL 16), monolayer culture of chinese hamster ovary and its corresponding MDR cell line CHOC5. See, Rauscher Ill, et al., "Characterization of Auromycin-Resistant Hamster Cell Mutants that Display a Multidrug Resistance Phenotype," Molecular Pharmacology, 38: 198-206 (1990).
(§4) This form of assay employs 96-well cell culture plates […]. Cells were seeded into wells at 1×10^3 cells per well in 100 μl aliquots of EMEM 5% FCS containing different concentrations of the corresponding lamellarins and other compounds (standards) to be tested. Two separate sets of cultures without drugs were seeded, one as control of growth to ensure that cells remained in exponential phase of growth, and another without cells as control of medium. All determinations were carried out in duplicate.
(§5) After three days of incubation at 37° C., 10% CO2 in a 98% humid atmosphere, 150 μg of MTT is added to each well in 50 μl aliquots of assay medium. Plates were incubated for an additional 4 hours and 100 μl aliquots of isopropanol were added to each well. The broad absorption spectrum for the isopropanol solution of this crystal is optimal at 570 nm. Optical density values were obtained with the help of a Dynatech microplate reader and the results of the assay were used to generate graphics from which IC50 was calculated; i.e., wherein the IC50 is the test concentration which produces 50% cell growth inhibition.

P-388 = assay: LAMELLARINS TOXICITY TO SENSITIVE TUMOR CELL LINE P-388 (MTT); assay type: cell-based; settings: Mus musculus, P388, 72 h, read-out: ACTIVITY: IC50
Method: as §1, §2, §3, §4, §5

CHOC5 (MDR) = assay: LAMELLARINS TOXICITY TO RESISTANT (MDR) TUMOR CELL LINE CHOC5 (MTT); assay type: cell-based, chinese hamster; settings: Cricetulus griseus, 72 h, read-out: ACTIVITY: IC50
Method: as §1, §2, §3, §4, §5

P-388/SCHABEL (MDR) = assay: LAMELLARINS TOXICITY TO RESISTANT (MDR) TUMOR CELL LINE P-388/SCHABEL (MTT); assay type: cell-based; settings: Mus musculus, P388, 72 h, read-out: ACTIVITY: IC50
Method: as §1, §2, §3, §4, §5

P388 = assay: Lamellarin in vitro activity vs. tumor cell lines, P388; settings: Mus musculus
HT-29 = assay: Lamellarin in vitro activity vs. tumor cell lines, HT-29; assay type: cell-based; settings: Homo sapiens; HT-29, Table IV
A549 = assay: Lamellarin in vitro activity vs. tumor cell lines, A549; settings: for IC50: Homo sapiens; for in vitro antitumor activities: compared with lamellarins I, K and L, particularly A549 cells
MEL-28 = assay: Lamellarin in vitro activity vs. tumor cell lines, MEL-28; assay type: cell-based; settings: Homo sapiens, SK-MEL-28; MEL-28, Table IV
MLR = assay: Immunomodulatory activity (LcV:MLR); assay type: cell-based; settings: in words
[1] = tested on: P388 Lymphocytic Leukemia; assay: In vivo anti-tumor activity vs P388 lymphocytic leukemia; parameters: species or system mouse; settings: total 75.000 mg/kg, QD 1-5, ip
[2] = CHOB1, sensitive, MTT, three days
[3] = P-388, sensitive, MTT, three days
[4] = P-388/SCHABEL (MDR), MTT, three days
[5] = P388, read-out: cytotoxicity IC50
[6] = A549, read-out: cytotoxicity IC50

SMILES | IC50 (CHOB1; [2]) | IC50 (P-388; [3]) | IC50 (CHOC5 (MDR); CHOC5 (MDR), MTT, three days) | IC50 (P-388/SCHABEL (MDR); [4]) | IC50 (P388; P388) | IC50 (HT-29) | IC50 (A549; A549) | further results
COc1cc(-c2c3n(c4c(=O)oc5cc(O)c(OC)cc5c24)C(O)Cc2c-3cc(OC)c(OC)c2OC)ccc1O (centres unmarked) [Lamellarin A] | 0.2 µg/mL (≈ 0.356 µM) | 0.5 µg/mL (≈ 0.89 µM) | 0.4 µg/mL (≈ 0.712 µM) | 0.5 µg/mL (≈ 0.89 µM) |  |  |  | 
COc1cc(-c2c3c4cc(OC)c(O)cc4oc(=O)c3n3ccc4c(OC)c(OC)c(OC)cc4c23)ccc1O [Lamellarin B] | 3 µg/mL (≈ 5.52 µM) | 5.5 µg/mL (≈ 10.1 µM) | 10 µg/mL (≈ 18.4 µM) | 5.5 µg/mL (≈ 10.1 µM) |  |  |  | 
COc1cc(-c2c3c4cc(OC)c(OC(C)=O)cc4oc(=O)c3n3ccc4cc(OC(C)=O)c(OC)cc4c23)ccc1OC(C)=O [Lamellarin D-triacetate] | 0.03 µg/mL (≈ 0.048 µM) | 0.07 µg/mL (≈ 0.112 µM) | 0.04 µg/mL (≈ 0.0639 µM) | 0.09 µg/mL (≈ 0.144 µM) |  |  |  | 
COc1ccc(-c2c3n(c4c(=O)oc5cc(OC)c(OC)cc5c24)CCc2c-3cc(OC)c(OC)c2OC)cc1OC [Lamellarin I-Methylate] | 0.5 µg/mL (≈ 0.872 µM) | 2.5 µg/mL (≈ 4.36 µM) | 2.5 µg/mL (≈ 4.36 µM) | 3 µg/mL (≈ 5.23 µM) |  |  |  | 
COc1ccc(-c2c3n(c4c(=O)oc5cc(OC(C)=O)c(OC)cc5c24)CCc2c-3cc(OC)c(OC)c2OC)cc1OC [Lamellarin I-acetate] | 2.5 µg/mL (≈ 4.16 µM) | 5.5 µg/mL (≈ 9.14 µM) | 5 µg/mL (≈ 8.31 µM) | 5.5 µg/mL (≈ 9.14 µM) |  |  |  | 
COc1cc2c(cc1O)oc(=O)c1c2c(-c2ccc(OC)c(OC)c2)c2n1CCc1c-2cc(OC)c(OC)c1OC [Lamellarin I] | 0.2 µg/mL (≈ 0.357 µM) | 2.5 µg/mL (≈ 4.47 µM) | 1 µg/mL (≈ 1.79 µM) | 2.5 µg/mL (≈ 4.47 µM) | 1 µg/mL (≈ 1.79 µM) | 2 µg/mL (≈ 3.57 µM) | 1 µg/mL (≈ 1.79 µM) | IC50 (P388; [5]): ~0.25 µg/mL (≈ 0.447 µM); IC50 (A549; [6]): ~0.25 µg/mL (≈ 0.447 µM)
COc1cc2c(cc1O)CCn1c-2c(-c2ccc(OC)c(OC)c2)c2c3cc(OC)c(O)cc3oc(=O)c21 [Lamellarin J] | 0.3 µg/mL (≈ 0.582 µM) | 1.5 µg/mL (≈ 2.91 µM) | 0.6 µg/mL (≈ 1.16 µM) | 2 µg/mL (≈ 3.88 µM) | 0.1 µg/mL (≈ 0.194 µM) | 2.5 µg/mL (≈ 4.85 µM) | 0.025 µg/mL (≈ 0.0485 µM) | IC50 (MEL-28): 2.5 µg/mL (≈ 4.85 µM); in vitro antitumor activities (A549): significantly better, particularly against A549 cells, than the lamellarins I, K and L
COc1cc(-c2c3n(c4c(=O)oc5cc(OC(C)=O)c(OC)cc5c24)CCc2c-3cc(OC)c(OC)c2OC(C)=O)ccc1OC(C)=O [Lamellarin K-triacetate] | 0.1 µg/mL (≈ 0.152 µM) | 0.06 µg/mL (≈ 0.0912 µM) | 0.1 µg/mL (≈ 0.152 µM) | 0.1 µg/mL (≈ 0.152 µM) |  |  |  | 
COc1cc(-c2c3n(c4c(=O)oc5cc(O)c(OC)cc5c24)CCc2c-3cc(OC)c(OC)c2O)ccc1O [Lamellarin K] | 0.1 µg/mL (≈ 0.188 µM) | 0.1 µg/mL (≈ 0.188 µM) | 0.4 µg/mL (≈ 0.753 µM) | 0.1 µg/mL (≈ 0.188 µM) | 0.25 µg/mL (≈ 0.47 µM) | 1 µg/mL (≈ 1.88 µM) | 0.25 µg/mL (≈ 0.47 µM) | IC50 (P388; [5]): ~0.25 µg/mL (≈ 0.47 µM); immunomodulatory activity (MLR): moderate immunomodulatory activity; % T/C [1]: > 135.0%; Body Weight Change Day 5 [1]: 1.2 gm; Body Weight Day 5 [1]: 20.7 ± 0.5 gm; Mean Survival Time [1]: 28.3 ± 5.9; Body Weight Day 0 ([1]; baseline): 19.5 ± 0.5 gm; IC50 (A549; [6]): ~0.25 µg/mL (≈ 0.47 µM)
COc1ccc(-c2c3n(c4c(=O)oc5cc(OC(C)=O)c(OC)cc5c24)CCc2cc(OC(C)=O)c(OC)cc2-3)cc1OC(C)=O [Lamellarin L-triacetate] | 1.5 µg/mL (≈ 2.39 µM) | 1.5 µg/mL (≈ 2.39 µM) | 1.5 µg/mL (≈ 2.39 µM) | 1.5 µg/mL (≈ 2.39 µM) |  |  |  | 
COc1ccc(-c2c3n(c4c(=O)oc5cc(O)c(OC)cc5c24)CCc2cc(O)c(OC)cc2-3)cc1O [Lamellarin L] | 0.4 µg/mL (≈ 0.798 µM) | 0.6 µg/mL (≈ 1.2 µM) | 0.6 µg/mL (≈ 1.2 µM) | 0.7 µg/mL (≈ 1.4 µM) | 0.25 µg/mL (≈ 0.499 µM) | 2 µg/mL (≈ 3.99 µM) | 0.25 µg/mL (≈ 0.499 µM) | IC50 (P388; [5]): ~0.25 µg/mL (≈ 0.499 µM); immunomodulatory activity (MLR): moderate immunomodulatory activity; IC50 (A549; [6]): ~0.25 µg/mL (≈ 0.499 µM)
COc1cc(-c2c3c4cc(OC)c(OC(C)=O)cc4oc(=O)c3n3ccc4c(OC(C)=O)c(OC)c(OC)cc4c23)ccc1OC(C)=O [Lamellarin M-triacetate] | 0.5 µg/mL (≈ 0.763 µM) | 0.6 µg/mL (≈ 0.915 µM) | 2 µg/mL (≈ 3.05 µM) | 0.7 µg/mL (≈ 1.07 µM) |  |  |  | 
COc1cc(-c2c3c4cc(OC)c(O)cc4oc(=O)c3n3ccc4c(O)c(OC)c(OC)cc4c23)ccc1O [Lamellarin M] |  |  |  |  | 0.05 µg/mL (≈ 0.0944 µM) | 0.5 µg/mL (≈ 0.944 µM) | 0.025 µg/mL (≈ 0.0472 µM) | IC50 (CHOB1): 0.04 µg/mL (≈ 0.0755 µM); IC50 (P-388): 0.08 µg/mL (≈ 0.151 µM); IC50 (CHOC5 (MDR)): 0.09 µg/mL (≈ 0.17 µM); IC50 (MEL-28): 0.5 µg/mL (≈ 0.944 µM); IC50 (P-388/SCHABEL (MDR)): 0.09 µg/mL (≈ 0.17 µM); in vitro antitumor activities (A549): significantly better, particularly against A549 cells, than the lamellarins I, K and L
COc1ccc(-c2c3c4cc(OC)c(OC(C)=O)cc4oc(=O)c3n3ccc4cc(OC(C)=O)c(OC)cc4c23)cc1OC(C)=O [Lamellarin N-triacetate] | 0.06 µg/mL (≈ 0.0959 µM) | 0.09 µg/mL (≈ 0.144 µM) | 0.1 µg/mL (≈ 0.16 µM) | 0.2 µg/mL (≈ 0.32 µM) | 0.1 µg/mL (≈ 0.16 µM) | 5 µg/mL (≈ 7.99 µM) | 0.012 µg/mL (≈ 0.0192 µM) | IC50 (MEL-28): 5 µg/mL (≈ 7.99 µM); in vitro antitumor activities (A549): significantly better, particularly against A549 cells, than the lamellarins I, K and L
C/C=C/C[C@@H](C)C(=O)[C@H]1C(=O)N[C@@H](C(C)C)C(=O)N(C)CC(=O)N(C)[C@@H](CC(C)C)C(=O)N[C@@H](C(C)C)C(=O)N(C)[C@@H](CC(C)C)C(=O)N[C@@H](C)C(=O)N[C@H](C)C(=O)N(C)[C@@H](CC(C)C)C(=O)N(C)[C@@H](CC(C)C)C(=O)N(C)[C@@H](C(C)C)C(=O)N1C [PSC833, reference compound] | 0.04 µg/mL (≈ 0.0329 µM) | 0.02 µg/mL (≈ 0.0165 µM) | 0.1 µg/mL (≈ 0.0823 µM) | 0.05 µg/mL (≈ 0.0412 µM) |  |  |  | 
COc1ccc(CCN(C)CCCC(C#N)(c2ccc(OC)c(OC)c2)C(C)C)cc1OC (centres unmarked) [Verapamil, reference compound] | 9 µg/mL (≈ 19.8 µM) | 10 µg/mL (≈ 22 µM) | 4 µg/mL (≈ 8.8 µM) | 10 µg/mL (≈ 22 µM) |  |  |  | 
